Test results reported in EP2889299A1, “Fluorescent red emitting functionalizable pH probes” (Paris Sciences et Lettres - Quartier Latin, priority 2013, dated 2015).
Read-outs that look alike come from different tables or passages of the source.

Legend:
[1] = Absorption spectra and molar extinction coefficient (Beer Lambert law); format: physicochemical; details: for λabs: maximum absorption wavelength
Description: (§1) All the solvents were of analytical grade. Chemicals were purchased from commercial sources. The salts used in stock solutions of metal ions were CaCl2·2H2O, CuCl2·2H2O, FeCl3·6H2O, MgCl2·6H2O, MnCl2·4H2O, ZnBr2. ^1H-NMR and ^13C-NMR were measured on a Bruker avance III-300 MHz spectrometer with chemical shifts reported in ppm (TMS as internal standard). Mass spectra were measured on a Focus GC / DSQ II spectrometer (ThermoScientific) for IC and an API 3000 spectrometer (Applied Biosystems, PE Sciex) for ES. All pH measurements were made with a Mettler Toledo pH-Meter. Fluorescence spectra were recorded on a JASCO FP-8300 spectrofluorometer. Absorption spectra were determined on a VARIAN CARY 300 Bio UV-Visible spectrophotometer. All measurements were done at a set temperature of 25°C. The purity of the dyes were checked by RP-HPLC C-18, eluant: ACN 0.1% TFA/Water 0.1 % TFA, method: 20/80 to 100/0 within 20 min. then 100/0 for 10 min. detection at λabs= 254 nm.
Molar extinction coefficient calculations. Extinction coefficients (ε) were calculated using the Beer Lambert law (equation 3) plotting optical density/absorption versus concentration for the pH probes. The gradient of the plot is equal to ε. A = εc1 [formula] • A = optical density/absorption • ε = extinction coefficient = gradient of the plot • c = concentration • 1= optical path length (1 cm)
The dependence of absorption on pH for probe I-1 was determined in a MOPS buffered aqueous solution. Results are represented in figure 2.

[2] = Fluorescence spectra, quantum yield and dynamic range; format: physicochemical; details: for λem: excitation at 535 nm, maximum emission wavelength; for Φ: MOPS 30 mM, KCl 100 mM, reference Rhodamine 101, excitation 535 nm; for Dynamic Range: maximal value of (I-Imin)/Imin; for ΦON/ ΦOFF: ratio of quantum yields at pH 4 and pH 10
Description: as §1
Dynamic range. The term dynamic range refers to the maximal value of equation 1 where I is the observed fluorescence intensity and Imin is the minimum fluorescence intensity observed for that probe. The larger the dynamic range the better as it indicates good differentiation between "on" and "off' states. Dynamic Range = ((I-Imin))/(Imin) [formula]
Quantum yield calculations. The fluorescence quantum yields (Φ) were calculated from the gradient of integrated fluorescence intensity (545 to 700 nm) versus optical density. Rhodamine 101 (Φ = 1.0 in absolute ethanol) was used as a reference standard (ref) with the excitation wavelength at 535 nm. Equation 2 was used to determine the Φ values. Φ = Φref (grad.)/(grad.ref).(η^2)/(ηref^2) [formula] • Φ = quantum yield • η = refractive index of the solvent system (η (H2O) = 1.33, ηref (EtOH) = 1.36) grad. = gradient of the curve
ΦON (pH = 4) and ΦOFF (pH = 10) were calculated for each pH probe in MOPS 30 mM, KCl 100 mM.
The dependence of fluorescence intensity on pH for probe I-1 was determined in a MOPS buffered aqueous solution after excitation at 535 nm. Results are represented in figure 3.

[3] = pKa calculation from fluorescence intensity versus pH (Hill equation fit); format: physicochemical; details: fluorescence intensity at λem,max versus pH, 25°C
Description: pKa calculations. pKa values were calculated by plotting the fluorescence intensity at λem.,max versus the pH. The data was fit to the Hill Equation (equation 4) and the pKa taken as x1/2 as per the Hill equation. base + ((max-base))/(1 + (((x1/2)/(x)))^rate) [formula] • base = y value at minimum x-value • max = y value at maximum x-value • rate = rise rate of the curve • x1/2 = x value at which y = (base + max)/2.
The dependence of fluorescence enhancement on pH was determined for probes I-1, I-3 and I-4. Results are represented in figure 4A, 4B, and 4C respectively. Curve fitting was based on a modified Hill equation from which pKa values were calculated.

[4] = tested on: F98 cells; assay: Dose response by flow cytometry (probe internalization); format: cell-based, rat; details: F98 cells incubated for two hours
Description: Cell calture for flow cytometry, dose response and cellular imaging: F98 and CHO-K1 cell lines (purchased from ATCC) were maintained at 37°C in 5% CO2 in DMEM/F-12 nutrient medium (Invitrogen, Cergy Pontoise, France) supplemented with 2% (v/v) heat-inactivated fetal bovine serum (Invitrogen) and 100 µg/mL streptomycine and 100 units/mL penicillin (Invitrogen).
Fluorescence Activated Cell Sorting Analyses: F98 cells were incubated with various concentrations of pH probes in DMEM/F-12 culture medium without serum at 37 °C for 2h. The cells were washed with PBS to remove excess fluorescent probe and were treated with 0.05% Trypsin-EDTA for 2 min at 37°C to detach the cells from the surface, and centrifuged at 200 g in DMEM/F-12 culture medium before suspension in PBS. Flow cytometry analyses were performed with live cells using an Accuri C6 flow cytometer (BD Biosciences, Le Pont de Claix, France). The data was obtained and analysed using CFlow Sampler (BD Biosciences). Live cells were gated by forward/side scattering for a total of 10,000 events.
Undifferentiated malignant glioma rat cells (F98) were incubated with probe I-1 for two hours at increasing concentrations and the fluorescence intensity measured. Results are represented in figure 7.

[5] = in absolute ethanol; reference standard; cited from earlier work
[6] = tested on: CHO-K1 cells; assay: Cytotoxicity, CCK-8 cell counting kit; format: cell-based, Chinese hamster; details: 1% Triton; positive control
Description: Cytotoxicity: CHO-K1 cells (20,000 per well) were seeded in 96 multiple well plates for 24 h before the experiment. Cells (40,000 per well) were incubated with the fluorescent compounds in 100 µL DMEM for 2h at 37°C. The incubation medium was replaced by 100µL fresh DMEM containing 10% of cell-counting solution (Dojindo Laboratories) and further incubated for 2h at 37°C. The absorbance was measured at 450 nm (reference at 620 nm) and was directly related to the number of living cells. Experiments were done in triplicate and repeated twice.
To determine cytotoxicity a CCK-8 cell counting kit was used. This can be bought commercially and relies upon the reduction of a highly water-soluble tetrazolium salt (WST-8). This compound is slightly yellow in color, however, upon reduction to its corresponding formazan species it becomes bright orange. The optical density of the absorbance corresponding to the orange formazan species, detected at 450nm, can be measured and correlated to the number of living cells. A decrease in optical density corresponds directly to a decrease in the quantity of formazan molecules indicating fewer living cells due to cell death/cytotoxicity. The reduction of WST-8 is achieved by exploiting the redox reactions of NAD+, a coenzyme found in all living cells. Cellular NAD+ is constantly being reduced to NADH by dehydrogenases as a natural part of a cell's metabolism. […]

[7] = Optical properties of the second (blue) fluorophore; format: physicochemical; details: measured in CH3CN/H2O
Excerpt: In addition to having the correct absorption and emission wavelengths, the chosen second fluorophore must feature a terminal alkyne to make it "clickable" with the azide-containing pH probe I-1. The acridone 5 was selected, having the following optical properties (measured in CH3CN/H2O): […]

[8] = Fluorescence of the ratiometric dual-fluorophore probe as a function of pH; format: physicochemical
Excerpt: • Figure 1 is a drawing schematically representing the red-emitting pH probe of the invention. • Figure 2 is a graph representing the dependence of absorption on pH in a MOPS buffered aqueous solution for compound I-1. • Figure 3 is a graph representing the dependence of fluorescence intensity on pH in a MOPS buffered aqueous solution after excitation at 535 nm, for compound I-1. • Figure 4A-4C are graphs representing the dependence of fluorescence enhancement on pH for compounds I-1 (4A), I-3 (4B) and I-4 (4C). • Figure 5 is a graph representing fluorescence intensities of compound I-1 (5 µM) in presence of a range of metal ions in a MOPS buffer (MOPS 30 mM, KCl 100 mM, pH 7.2). The concentration of cations is 10^-3 M. • Figure 6 is a graph representing CCK-8 test results for compound I-1 indicating cytotoxicity. The probe was incubated with Chinese hamster ovary cells (CHO-K1) for 2 hours at 37°C. • Figure 7 is a dose response diagram for F98 cells incubated with pH probe I-1. • Figure 8 is a graph representing the fluorescence spectrum for the dual-fluorophore I-5 (5 µM) measured in an aqueous MOPS buffered solution/MeOH, 91/9. • Figure 9 is a plot of I∼612/I439 versus pH at excitation wavelength 405 nm for compound I-5. I∼612 and I439 are the respective fluorescence intensities of the system at ∼612nm corresponding to the X-rhodamine red-emission and at 439nm corresponding to the acridone blue-emission.
The peak centred at 439 nm corresponding to emission from the acridone fluorophore and the peak centred at 612 nm to that of the X-rhodamine. The blue acridone emission is not dependent on pH while the red X-rhodamine emission is dependent on pH.
In order to visualize the intensity ratio between the two emission signals a plot of I∼612/I439 versus pH was plotted (figure 9). I∼612 and I439 are the respective fluorescence intensities of the system at ∼612 nm corresponding to the X-rhodamine red-emission and at 439 nm corresponding to the acridone blue-emission.

[9] = 5 µM, aqueous MOPS buffered solution/MeOH, 91/9

Row | Compound | ε ([1]; OFF, deprotonated form: pH 10) | λabs ([1]; OFF, deprotonated form: pH 10) | ε ([1]; ON, protonated form: pH 4) | λabs ([1]; ON, protonated form: pH 4) | λem ([2]; OFF, deprotonated form: pH 10) | Φ ([2]; OFF, pH 10) | Φ ([2]; ON, pH 4) | λem ([2]; ON, protonated form: pH 4) | Dynamic Range [2] | ΦON/ ΦOFF [2] | pKa [3] | other results
1 | O=C(O)c1ccccc1C1=c2cc3c4c(c2Oc2c1cc1c5c2CCCN5CCC1)CCC[N+]=4CCC3.[Cl-] [Rhodamine 101] |  |  |  |  |  |  |  |  |  |  |  | Φ [5]: 1.0
2 | Triton |  |  |  |  |  |  |  |  |  |  |  | cell death [6]: total cell death
3 | C#CCCCn1c2ccccc2c(=O)c2ccccc21 |  |  |  |  |  |  |  |  |  |  |  | λabs [7]: 408 nm; λem [7]: 425 nm; FWHM ([7]; full width at half maximum): 49
4 | O=C(NCCCn1cc(CCCn2c3ccccc3c(=O)c3ccccc32)nn1)c1cc(C2=c3cc4c5c(c3Oc3c2cc2c6c3CCCN6CCC2)CCC[N+]=5CCC4)ccc1O [Compound I-5] |  |  |  |  |  |  |  |  |  |  |  | emission peak of the X-rhodamine [8, 9]: 612 nm; emission peak of the acridone fluorophore [8, 9]: 439 nm; I∼612/I439 ratio ([8]; excitation wavelength 405 nm, as the system was acidified): four-fold increase

Further lines, with some results ahead:

Row | ε ([1]; OFF, deprotonated form: pH 10) | λabs ([1]; OFF, deprotonated form: pH 10) | ε ([1]; ON, protonated form: pH 4) | λabs ([1]; ON, protonated form: pH 4) | λem ([2]; OFF, deprotonated form: pH 10) | Φ ([2]; OFF, pH 10) | Φ ([2]; ON, pH 4) | λem ([2]; ON, protonated form: pH 4) | Dynamic Range [2] | ΦON/ ΦOFF [2] | pKa [3] | Compound | other results
5 | 26706 M⁻¹ cm⁻¹ | 574 nm | 26742 M⁻¹ cm⁻¹ | 580 nm | 596 nm | 0.009 | 0.254 | 600 nm | 88 | 28 | 3.96 | [N-]=[N+]=NCCCNC(=O)c1cc(C2=c3cc4c5c(c3Oc3c2cc2c6c3CCCN6CCC2)CCC[N+]=5CCC4)ccc1O [Compound I-1] | absorbs light at ([1]; red region of the spectrum): 580 nm; fluorescence intensity of cells at increasing concentrations of probe [4]: increase of fluorescence with increasing concentration of probe
6 | 20712 M⁻¹ cm⁻¹ | 574 nm | 35109 M⁻¹ cm⁻¹ | 580 nm | 600 nm | 0.023 | 0.798 | 601 nm | 98 | 35 | 7.64 | C#CCN1CCN(C(=O)c2cc(C3=c4cc5c6c(c4Oc4c3cc3c7c4CCCN7CCC3)CCC[N+]=6CCC5)ccc2O)CC1 [Compound I-4] | 
7 | 49298 M⁻¹ cm⁻¹ | 575 nm | 72405 M⁻¹ cm⁻¹ | 580 nm | 602 nm | 0.016 | 0.640 | 601 nm | 86 | 40 | 7.68 | C#CCOC(=O)N1CCN(C(=O)c2cc(C3=c4cc5c6c(c4Oc4c3cc3c7c4CCCN7CCC3)CCC[N+]=6CCC5)ccc2O)CC1 [Compound I-3] | 
